This note sets out measurements from patent US6716833B2, “Acetylenic α-amino acid-based sulfonamide hydroxamic acid tace inhibitors” (priority 1999, dated 2004).

Common to all, as to format: biochemical
For one assay, the target named is T1, MMP-1 (Homo sapiens, UniProt P03956).
T1 sequence (P03956 100-469): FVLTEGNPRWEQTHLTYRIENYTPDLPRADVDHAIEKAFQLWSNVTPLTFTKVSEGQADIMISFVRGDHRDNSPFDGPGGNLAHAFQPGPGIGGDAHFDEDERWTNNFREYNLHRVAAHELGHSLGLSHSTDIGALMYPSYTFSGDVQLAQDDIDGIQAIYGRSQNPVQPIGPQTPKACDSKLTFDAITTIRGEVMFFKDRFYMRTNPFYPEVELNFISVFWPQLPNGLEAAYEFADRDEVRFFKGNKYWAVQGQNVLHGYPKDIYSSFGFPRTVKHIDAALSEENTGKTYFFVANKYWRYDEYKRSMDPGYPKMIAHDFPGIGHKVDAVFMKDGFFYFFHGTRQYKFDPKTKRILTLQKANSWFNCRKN
Briefly: MMP-1 inhibition (thiopeptide or fluorescent peptide substrate). Particulars: read-out: MMP-1 IC50.

The next assay has as its target MMP-9 (Homo sapiens, UniProt P14780). Briefly: MMP-9 inhibition (thiopeptide or fluorescent peptide substrate). The settings on record: read-out: MMP-9 IC50.
A further assay deals with MMP-13 (Homo sapiens, UniProt P45452). Briefly: MMP-13 inhibition (thiopeptide or fluorescent peptide substrate). Particulars: read-out: MMP-13 IC50.
For assay [1], the target named is TNF-α converting enzyme (TACE) (Homo sapiens, UniProt P78536). The assay is described as follows: TACE inhibition (fluorescent peptidyl substrate). The settings on record: read-out: TACE IC50.

The structures appear in SMILES notation. pIC50: −log10 of the molar value. Counter-ions that a name gives are not always drawn. Like-named read-outs stand apart in the source and are kept apart here.

Sequence of MMP-9 (P14780 94-707): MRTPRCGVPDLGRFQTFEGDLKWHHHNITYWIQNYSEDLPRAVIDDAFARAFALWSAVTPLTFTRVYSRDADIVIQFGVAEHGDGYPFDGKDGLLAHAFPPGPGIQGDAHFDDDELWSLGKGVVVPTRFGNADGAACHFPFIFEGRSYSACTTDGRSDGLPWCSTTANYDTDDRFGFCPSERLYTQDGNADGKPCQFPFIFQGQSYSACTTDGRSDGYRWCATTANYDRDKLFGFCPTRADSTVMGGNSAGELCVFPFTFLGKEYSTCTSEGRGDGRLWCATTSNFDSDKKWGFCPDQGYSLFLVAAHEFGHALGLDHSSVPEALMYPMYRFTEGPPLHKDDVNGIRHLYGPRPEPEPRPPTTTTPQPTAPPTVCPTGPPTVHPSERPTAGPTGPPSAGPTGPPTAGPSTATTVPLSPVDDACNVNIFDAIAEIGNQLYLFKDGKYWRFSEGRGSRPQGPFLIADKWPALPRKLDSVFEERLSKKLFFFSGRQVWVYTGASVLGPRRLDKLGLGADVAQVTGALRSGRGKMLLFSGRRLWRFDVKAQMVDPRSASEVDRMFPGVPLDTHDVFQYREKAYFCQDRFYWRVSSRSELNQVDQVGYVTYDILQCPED
Sequence of TNF-α converting enzyme (TACE) (P78536 215-824, species assumed): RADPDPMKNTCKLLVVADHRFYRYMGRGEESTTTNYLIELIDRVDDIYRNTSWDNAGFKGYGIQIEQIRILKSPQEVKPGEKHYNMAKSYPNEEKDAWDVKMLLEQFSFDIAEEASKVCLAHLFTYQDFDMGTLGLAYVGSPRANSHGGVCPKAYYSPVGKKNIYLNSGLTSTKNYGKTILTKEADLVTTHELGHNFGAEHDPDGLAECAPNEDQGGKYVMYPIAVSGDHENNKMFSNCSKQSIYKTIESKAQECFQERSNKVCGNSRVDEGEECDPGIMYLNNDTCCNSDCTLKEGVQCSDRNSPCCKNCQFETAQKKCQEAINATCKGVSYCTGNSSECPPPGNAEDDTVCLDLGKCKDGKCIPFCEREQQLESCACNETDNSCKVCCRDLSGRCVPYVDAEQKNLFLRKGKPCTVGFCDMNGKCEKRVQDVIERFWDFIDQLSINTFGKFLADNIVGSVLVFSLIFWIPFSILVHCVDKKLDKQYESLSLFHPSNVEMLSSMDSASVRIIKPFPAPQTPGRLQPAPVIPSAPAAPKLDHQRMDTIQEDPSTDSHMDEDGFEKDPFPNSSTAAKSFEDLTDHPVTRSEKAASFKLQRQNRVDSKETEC
Procedure for MMP-13: The enzyme activity is measured by the rate of the color increase. The thiopeptide substrate is made up fresh as a 20 mM stock in 100% DMSO and the DTNB is dissolved in 100% DMSO as a 100 mM stock and stored in the dark at room temperature. Both the substrate and DTNB are diluted together to 1 mM with substrate buffer (50 mM HEPES pH 7.5, 5 mM CaCl2) before use. The stock of enzyme is diluted with buffer (50 mM HEPES, pH 7.5, 5 mM CaCl2, 0.02% Brij) to the desired final concentration.
Alternatively, a fluorescent peptide substrate is used. In this test procedure, the peptide substrate contains a fluorescent group and a quenching group. Upon cleavage of the substrate by an MMP, the fluorescence that is generated is quantitated on the fluorescence plate reader. The assay is run in HCBC assay buffer (50 mM HEPES, pH 7.0, 5 mM Ca^+2, 0.02% Brij, 0.5% Cysteine), with human recombinant MMP-1, MMP-9, or MMP-13. […] For the assay, substrate and enzymes are diluted in HCBC buffer to the desired concentrations. Compounds are added to the 96 well plate containing enzyme and the reaction is started by the addition of substrate.
For either the thiopeptide or fluorescent peptide test procedures, the slope of the line is calculated and represents the reaction rate. The linearity of the reaction rate is confirmed (r^2>0.85). The mean (x±sem) of the control rate is calculated and compared for statistical significance (p<0.05) with drug-treated rates using Dunnett's multiple comparison test.

Usually pIC50 stands for the IC50 on a negative log10 scale, so that one unit is a factor of ten. In the case of `CC#CCOc1ccc(S(=O)(=O)N2CC[S+]([O-])C(C)(C)C2C(=O)NO)cc1` (single isomer, unassigned) [Example 255], the pIC50 at MMP-1 (Table 9) was 7.34; at MMP-9 (Table 9), 7.54; on MMP-13 (Table 9) it was 8.06; in assay [1] (Table 9), 7.62.

On to `CC#CCOc1ccc(S(=O)(=O)N2CC[S+]([O-])C(C)(C)C2C(=O)NO)cc1` (single isomer, unassigned) [Example 256], for which the pIC50 was 7.37 at MMP-1 (Table 9), 6.84 at MMP-9 (Table 9), 7.32 on MMP-13 (Table 9) and 7.60 in assay [1] (Table 9).

Turning to `CC#CCOc1ccc(S(=O)(=O)N(Cc2cccnc2)C(C)C(=O)NO)cc1` (stereo not shown) [Example 33, 2-[(4-but-2-ynyloxy-Benzenesulfonyl)-pyridin-3-ylmethyl-amino]-N-hydroxy-propionamide Hydrochloride], the pIC50 was 6.62 on MMP-1, 7.19 on MMP-9, 7.59 at MMP-13 and 8.30 in assay [1].

For the compound `CCCCC#CCOc1ccc(S(=O)(=O)N2CCSC(C)(C)C2C(=O)NO)cc1` (stereo not shown) [Example 40, 4-(4-hept-2-ynyloxy-Benzenesulfonyl)-2,2-dimethyl-thiomorpholine-3-carboxylic Acid Hydroxyamide], the negative-log IC50 (pIC50) was 7.54 on MMP-1 (Table 9), 8.11 at MMP-9 (Table 9), 8.18 on MMP-13 (Table 9) and 7.64 in assay [1] (Table 9).

`CC#CCOc1ccc(S(=O)(=O)N2Cc3ccccc3CC2C(=O)NO)cc1` (stereo not shown) [Example 41, 2-(4-but-2-ynyloxy-Benzenesulfonyl)-1,2,3,4-tetrahydro-isoquinoline-3-carboxylic Acid Hydroxyamide]: the pIC50 on MMP-1 was 6.92; on MMP-9, 7.62; at MMP-13, 8.00; in assay [1], 8.15.

In the case of `CC#CCOc1ccc(S(=O)(=O)N2CCCN(C(=O)c3ccccc3)CC2C(=O)NO)cc1` (stereo not shown) [Example 49, 4-Benzoyl-1-(4-but-2-ynyloxy-benzenesulfonyl)-[1,4]diazepane-2-carboxylic Acid Hydroxyamide], the pIC50 was 6.44 on MMP-1, 7.12 on MMP-9, 7.19 at MMP-13 and 7.77 in assay [1].

With `CC#CCOc1ccc(S(=O)(=O)N2CCN(C)CC2C(=O)NO)cc1` (stereo not shown) [Example 56, 1-(4-but-2-ynyloxy-Benzenesulfonyl)-4-methyl-piperazine-2-carboxylic Acid Hydroxyamide Hydrochloride], the pIC50 on MMP-1 is 5.48; at MMP-9, 6.18; on MMP-13, 6.80; in assay [1] it was 7.39.

For the compound `CC#CCOc1ccc(S(=O)(=O)N2CCN(C(=O)OC(C)(C)C)CC2C(=O)NO)cc1` (stereo not shown) [Example 58, 4-(4-but-2-ynyloxy-Benzenesulfonyl)-3-hydroxycarbamoyl-piperazine-1-carboxylic Acid tert-Butyl Ester], the pIC50 on MMP-1 was 6.34; at MMP-9, 7.62; on MMP-13, 7.77; in assay [1] it was 7.68.

For the compound `CC#CCOc1ccc(S(=O)(=O)N(CC)C(C(=O)NO)C(C)C)cc1` (stereo not shown) [Example 108, 2-[(4-but-2-ynyloxy-Benzenesulfonyl)-ethyl-amino]-N-hydroxy-3-methyl-butyramide], the pIC50 was 7.04 on MMP-1, 6.92 on MMP-9, 7.17 on MMP-13 and 7.48 in assay [1].

In the case of `C#CCN(C(C(=O)NO)C(C)C)S(=O)(=O)c1ccc(OCC#CC)cc1` (stereo not shown) [Example 109, 2-[{[4-(2-Butynyloxy)phenyl]sulfonyl}(2-propynyl)amino]-N-hydroxy-3-methylbutanamide], the pIC50 at MMP-1 was 6.68; on MMP-9, 6.63; at MMP-13, 7.28; in assay [1], 7.26.

For `CC#CCOc1ccc(S(=O)(=O)N(CCC)C(C(=O)NO)C(C)C)cc1` (stereo not shown) [Example 110, 2[(4-but-2-ynyloxy-Benzenesulfonyl)-propyl-amino]-N-hydroxy-3-methyl-butyramide], the pIC50 at MMP-1 was 6.71; on MMP-9 it was 6.32; at MMP-13, 6.82; in assay [1] it was 7.18.

Regarding `CC#CCOc1ccc(S(=O)(=O)N(CCCc2ccccc2)C(C(=O)NO)C(C)C)cc1` (stereo not shown) [Example 111, 2-[(4-but-2-ynyloxy-Benzenesulfonyl)-(3-phenyl-propyl)-amino]-N-hydroxy-3-methyl-butyramide], the pIC50 on MMP-1 was 6.51; on MMP-9, 5.85; on MMP-13, 6.52; in assay [1], 6.32.

For the compound `CC#CCOc1ccc(S(=O)(=O)N(CC2CC2)C(C(=O)NO)C(C)C)cc1` (stereo not shown) [Example 112, 2-[(4-but-2-ynyloxy-Benzenesulfonyl)-cyclopropylmethyl-amino]-N-hydroxy-3-methyl-butyramide], the pIC50 on MMP-1 was 6.72; at MMP-9 it was 6.40; at MMP-13 it was 6.85; in assay [1], 7.24.

Regarding `CC#CCOc1ccc(S(=O)(=O)N(CC(C)C)C(C(=O)NO)C(C)C)cc1` (stereo not shown) [Example 113, 2-[(4-but-2-ynyloxy-Benzenesulfonyl)-isobutyl-amino]-N-hydroxy-3-methyl-butyramide], the pIC50 on MMP-1 is 6.52; at MMP-9, 6.04; at MMP-13, 6.51; in assay [1], 6.97.

`CC#CCOc1ccc(S(=O)(=O)N(Cc2cccnc2)C(C(=O)NO)C(C)C)cc1` (stereo not shown) [Example 114, 2-[(4-but-2-ynyloxy-Benzenesulfonyl)-pyridin-3-ylmethyl-amino]-N-hydroxy-3-methyl-butyramide]: the pIC50 is 6.63 on MMP-1, 6.71 on MMP-9, 7.03 at MMP-13 and 7.03 in assay [1].

Take `CC#CCOc1ccc(S(=O)(=O)N(C)C(C(=O)NO)C2CCCCC2)cc1` (stereo not shown) [Example 115, 2-[(4-but-2-ynyloxy-Benzenesulfonyl)-methyl-amino]-2-cyclohexyl-N-hydroxy-acetamide]: the pIC50 on MMP-1 is 7.03; at MMP-9 it was 7.85; at MMP-13, 8.18; in assay [1], 7.51.

In the case of `CC#CCOc1ccc(S(=O)(=O)N(Cc2cccnc2)[C@@H](C(=O)NO)C2CCCCC2)cc1` [Example 116, 2-[(4-but-2-ynyloxy-Benzenesulfonyl)-pyridin-3-ylmethyl-amino]-2-cyclohexyl-N-hydroxy-acetamide], the pIC50 at MMP-1 is 6.66; on MMP-9 it was 6.47; on MMP-13, 7.28; in assay [1], 6.69.

With `CC#CCOc1ccc(S(=O)(=O)N(CCCN(CC)CC)C(C(=O)NO)C(C)C)cc1` (stereo not shown) [Example 118, 2-{{[4-(2-Butynyloxy)phenyl]sulfonyl}[3-(diethylamino)propyl]amino}-N-hydroxy-3-methylbutanamide], the negative-log IC50 (pIC50) at MMP-1 is 6.92; at MMP-9 it was 7.07; at MMP-13, 7.35; in assay [1], 6.81.

As for `CC#CCOc1ccc(S(=O)(=O)N(CCCN2CCOCC2)C(C(=O)NO)C(C)C)cc1` (stereo not shown) [Example 119, 2-{{[4-(2-Butynyloxy)phenyl]sulfonyl}[3-(4-morpholinyl)propyl]amino}-N-hydroxy-3-methylbutanamide], the pIC50 at MMP-1 is 6.89; at MMP-9, 7.03; at MMP-13 it was 7.34; in assay [1] it was 6.91.

In the case of `CC#CCOc1ccc(S(=O)(=O)N(CCCN2CCN(C)CC2)C(C(=O)NO)C(C)C)cc1` (stereo not shown) [Example 120, 2-{{[4-(2-Butynyloxy)phenyl]sulfonyl}[3-(4-methyl-1-piperazinyl)propyl]amino}-N-hydroxy-3-methylbutanamide Hydrochloride], the pIC50 at MMP-1 is 6.95; on MMP-9 it was 6.68; at MMP-13 it was 6.79; in assay [1] it was 6.83.

Take `CC#CCOc1ccc(S(=O)(=O)N(CCCCN(CC)CC)C(C(=O)NO)C(C)C)cc1` (stereo not shown) [Example 121, 2-{{[4-(2-Butynyloxy)phenyl]sulfonyl}[4-(diethylamino)butyl]amino}-N-hydroxy-3-methylbutanamide]: the pIC50 at MMP-1 is 6.92; on MMP-9, 6.59; at MMP-13, 6.94; in assay [1] it was 6.75.

With `CC#CCOc1ccc(S(=O)(=O)N(CCCCN2CCN(C)CC2)C(C(=O)NO)C(C)C)cc1` (stereo not shown) [Example 122, 2-{{[4-(2-Butynyloxy)phenyl]sulfonyl}[4-(4-methyl-1-piperazinyl)butyl]amino}-N-hydroxy-3-methylbutanamide], the pIC50 was 7.07 at MMP-1, 6.87 at MMP-9, 7.30 at MMP-13 and 6.89 in assay [1].

Regarding `CC1(C)SCCN(S(=O)(=O)c2ccc(OCC#CCN)cc2)C1C(=O)NO` (stereo not shown) [Example 265, 4-({4-[(4-Amino-2-butynyl)oxy]phenyl}sulfonyl)-N-hydroxy-2,2-dimethyl-3-thiomorpholine Carboxamide], the values for the pIC50 at MMP-1 (Table 10), at MMP-9 (Table 10) and at MMP-13 (Table 10) were 7.01, 8.06 and 8.12, respectively.
